The term inhibition denotes how much of the control response was suppressed. The term IC50 denotes the concentration that gives 50% inhibition.

Human TASK-1 channels, sequence (O14649 whole entry): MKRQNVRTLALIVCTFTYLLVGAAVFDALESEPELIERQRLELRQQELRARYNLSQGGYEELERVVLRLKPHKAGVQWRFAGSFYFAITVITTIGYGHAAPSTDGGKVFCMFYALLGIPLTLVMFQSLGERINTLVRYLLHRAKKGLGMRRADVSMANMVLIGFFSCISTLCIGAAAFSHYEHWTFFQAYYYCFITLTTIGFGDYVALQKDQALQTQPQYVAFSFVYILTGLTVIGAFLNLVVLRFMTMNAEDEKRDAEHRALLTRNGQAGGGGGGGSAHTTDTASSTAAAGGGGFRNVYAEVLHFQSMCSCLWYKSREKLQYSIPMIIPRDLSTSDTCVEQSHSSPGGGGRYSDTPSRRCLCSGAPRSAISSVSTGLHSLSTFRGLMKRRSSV

One test addresses Human TASK-1 channels (Homo sapiens (Human), UniProt O14649). Put plainly: Determination of the activity on the TASK-1 channel in Xenopus oocytes (two-microelectrode voltage clamp). It counts as cell-based. The conditions noted are these: compound concentration 5 μM. The method, boiled down: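 Current during 500 ms pulses to 40 mV from a −90 mV hold was recorded in oocytes expressing human TASK-1 for two days after cRNA injection. Compounds were added cumulatively to the ND96 bath (pH 7.4, room temperature). IC50 came from dose-response fitting of inhibition relative to pre-compound current.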
`CC[C@@H](NC(=O)c1cc(C(=O)N2CCC[C@@H]2C)n2c1COCC2)c1ccc(SC)nc1` [16ra, 6-((S)-2-Methyl-pyrrolidine-1-carbonyl)-3,4-dihydro-1H-pyrrolo[2,1-c][1,4]oxazine-8-carboxylic acid [(R)-1-(6-methylsulfanyl-pyridin-3-yl)-propyl]-amide] came in with an inhibition at 5 µM of 60%.

The same test, now with this note: human TASK-1 expressed in Xenopus oocytes, room temperature; read-out: IC50 value for TASK-1 inhibition.
As to `C[C@@H](NC(=O)c1cc(C(=O)N[C@H](C)c2ccc(F)cc2)n2c1COCC2)c1ccc(F)cc1` [16dm, 3,4-Dihydro-1H-pyrrolo[2,1-c][1,4]oxazine-6,8-dicarboxylic acid bis-{[(R)-1-(4-fluoro-phenyl)-ethyl]-amide}], the IC50 came to 125 nM.

`CC[C@@H](NC(=O)c1cc(C(=O)NCCc2ccccn2)n2c1COCC2)c1ccccc1` [16gm, 3,4-Dihydro-1H-pyrrolo[2,1-c][1,4]oxazine-6,8-dicarboxylic acid 8-[((R)-1-phenyl-propyl)-amide] 6-[(2-pyridin-2-yl-ethyl)-amide]]: the IC50 came out at 490 nM. Consider `CC[C@@H](NC(=O)c1cc(C(=O)N2CCC[C@@H]2C)n2c1COCC2)c1cnc(C#N)c(Cl)c1` [16rf, 6-((S)-2-Methyl-pyrrolidine-1-carbonyl)-3,4-dihydro-1H-pyrrolo[2,1-c][1,4]oxazine-8-carboxylic acid [(R)-1-(5-chloro-6-cyano-pyridin-3-yl)-propyl]-amide], for which the IC50 came out at 1000 nM. On the same count and under the same terms, for `CC[C@@H](NC(=O)c1cc(C(=O)N2CCCC2CN2CCOCC2)n2c1COCC2)c1ccccc1` (stereo partly drawn) [16fr, 6-(2-Morpholin-4-ylmethyl-pyrrolidine-1-carbonyl)-3,4-dihydro-1H-pyrrolo[2,1-c][1,4]oxazine-8-carboxylic acid ((R)-1-phenyl-propyl)-amide] the value was 1300 nM; for `CC[C@@H](NC(=O)c1cc(C(=O)N[C@@H](C)C(=O)OC(C)C)n2c1COCC2)c1ccccc1` [16it, (S)-2-{[8-((R)-1-Phenyl-propylcarbamoyl)-3,4-dihydro-1H-pyrrolo[2,1-c][1,4]oxazine-6-carbonyl]-amino}-propionic acid isopropyl ester], 130 nM.

As to `CC[C@@H](NC(=O)c1cc(C(=O)N[C@@H](C)c2ccc(F)cc2)n2c1CCCC2)c1ccccc1` [16lt, 5,6,7,8-Tetrahydro-indolizine-1,3-dicarboxylic acid 3-{[(S)-1-(4-fluoro-phenyl)-ethyl]-amide} 1-[((R)-1-phenyl-propyl)-amide]], the IC50 came to 58 nM. On the same count and under the same terms, for `CC[C@@H](NC(=O)c1cc(C(=O)N[C@H](C)c2cnccn2)c2n1CCOC2)c1ccc(F)cc1Cl` [16kn, 3,4-Dihydro-1H-pyrrolo[2,1-c][1,4]oxazine-6,8-dicarboxylic acid 6-{[(R)-1-(2-chloro-4-fluoro-phenyl)-propyl]-amide} 8-[((R)-1-pyrazin-2-yl-ethyl)-amide]] the value was 130 nM. In the case of `CC[C@@H](NC(=O)c1cc(C(=O)N[C@H](CC)c2cnc(OC)cn2)n2c1COCC2)c1ccccc1` [16hy, 3,4-Dihydro-1H-pyrrolo[2,1-c][1,4]oxazine-6,8-dicarboxylic acid 6-{[(R)-1-(5-methoxy-pyrazin-2-yl)-propyl]-amide} 8-[((R)-1-phenyl-propyl)-amide]], the half-maximal inhibitory concentration (IC50) was found to be 41 nM. For the molecule `CC[C@@H](NC(=O)c1cc(C(=O)N(C)CCOC)n2c1CCCC2)c1ccccc1` [16mh, 5,6,7,8-Tetrahydro-indolizine-1,3-dicarboxylic acid 3-[(2-methoxy-ethyl)-methyl-amide] 1-[((R)-1-phenyl-propyl)-amide]], the IC50 stood at 160 nM.

`CC[C@H](NC(=O)c1cc(C(=O)N[C@H](C)c2ccc(F)cc2)c2n1CCOC2)c1ccccc1` [16jp, 3,4-Dihydro-1H-pyrrolo[2,1-c][1,4]oxazine-6,8-dicarboxylic acid 8-{[(R)-1-(4-fluoro-phenyl)-ethyl]-amide} 6-[((S)-1-phenyl-propyl)-amide]]: the 50% inhibitory concentration (IC50) stood at 220 nM. Consider `CC[C@@H](NC(=O)c1cc(C(=O)N2CCCCCC2)n2c1CCCC2)c1ccccc1` [16mr, 3-(Azepane-1-carbonyl)-5,6,7,8-tetrahydro-indolizine-1-carboxylic acid ((R)-1-phenyl-propyl)-amide], for which the IC50 is 200 nM. Regarding `CC[C@@H](NC(=O)c1cc(C(=O)N[C@H](CC)c2ccccn2)n2c1COCC2)c1ccccc1` [16gr, 3,4-Dihydro-1H-pyrrolo[2,1-c][1,4]oxazine-6,8-dicarboxylic acid 8-[((R)-1-phenyl-propyl)-amide] 6-[((R)-1-pyridin-2-yl-propyl)-amide]], the IC50 turned out to be 310 nM. As for `CC[C@@H](NC(=O)c1cc(C(=O)N2CCC[C@@H]2C)n2c1COCC2)c1ccc(C(F)(F)F)c(Cl)c1` [16c, 6-((S)-2-Methyl-pyrrolidine-1-carbonyl)-3,4-dihydro-1H-pyrrolo[2,1-c][1,4]oxazine-8-carboxylic acid [(R)-1-(3-chloro-4-trifluoromethyl-phenyl)-propyl]-amide], the IC50 came out at 13 nM.

As for `CC[C@@H](NC(=O)c1cc(C(=O)NC(C)c2ccno2)n2c1COCC2)c1ccccc1` (stereo partly drawn) [16hh, 3,4-Dihydro-1H-pyrrolo[2,1-c][1,4]oxazine-6,8-dicarboxylic acid 6-[(1-isoxazol-5-yl-ethyl)-amide] 8-[((R)-1-phenyl-propyl)-amide]], the IC50 is 1000 nM. The same measure, in the same setting: for `CC[C@@H](NC(=O)c1cc(C(=O)N2CCCCC2)n2c1CCCC2)c1ccccc1` [16mi, 3-(Piperidine-1-carbonyl)-5,6,7,8-tetrahydro-indolizine-1-carboxylic acid ((R)-1-phenyl-propyl)-amide] the value was 590 nM. On the same count and under the same terms, for `CC[C@@H](NC(=O)c1cc(C(=O)N2CCC[C@@H]2C)n2c1COCC2)c1ccc(C(F)(F)F)s1` [16cf, 6-((S)-2-Methyl-pyrrolidine-1-carbonyl)-3,4-dihydro-1H-pyrrolo[2,1-c][1,4]oxazine-8-carboxylic acid [(R)-1-(5-trifluoromethyl-thiophen-2-yl)-propyl]-amide] the value was 21 nM; for `CCOC(=O)C[C@H]1CCCN1C(=O)c1cc(C(=O)N[C@H](CC)c2ccccc2)c2n1CCOC2` [16fi, {(R)-1-[8-((R)-1-Phenyl-propylcarbamoyl)-3,4-dihydro-1H-pyrrolo[2,1-c][1,4]oxazine-6-carbonyl]-pyrrolidin-2-yl}-acetic acid ethyl ester], 130 nM. Turning to `CC[C@@H](NC(=O)c1cc(C(=O)N2CCC[C@@H]2C)n2c1COCC2)c1cnc(C(F)(F)F)c(F)c1` [16ck, 6-((S)-2-Methyl-pyrrolidine-1-carbonyl)-3,4-dihydro-1H-pyrrolo[2,1-c][1,4]oxazine-8-carboxylic acid [(R)-1-(5-fluoro-6-trifluoromethyl-pyridin-3-yl)-propyl]-amide], the IC50 amounted to 830 nM. As to `CC[C@@H](NC(=O)c1cc(C(=O)N2CCC[C@@H]2C)c2n1CCOC2)c1ccccc1Cl` [16nh, 8-((S)-2-Methyl-pyrrolidine-1-carbonyl)-3,4-dihydro-1H-pyrrolo[2,1-c][1,4]oxazine-6-carboxylic acid [(R)-1-(2-chloro-phenyl)-propyl]-amide], the IC50 is 90 nM. Consider `CC[C@@H](NC(=O)c1cc(C(=O)N(C)[C@@H](C)C(=O)NC(C)C)n2c1COCC2)c1ccccc1` [16rl], for which the IC50 turned out to be 4500 nM.

Turning to “5,6,7,8-Tetrahydro-indolizine-1,3-dicarboxylic acid 3-[(5-fluoro-pyridin-3-ylmethyl)-amide] 1-[((R)-1-phenyl-propyl)-amide] [16nb]”, the IC50 worked out at 460 nM. Consider `CC[C@H](NC(=O)c1cc(C(=O)N[C@H](C)c2ccc(F)cc2)n2c1COCC2)c1ncc(C(F)(F)F)cn1` [16ee, 3,4-Dihydro-1H-pyrrolo[2,1-c][1,4]oxazine-6,8-dicarboxylic acid 6-{[(R)-1-(4-fluoro-phenyl)-ethyl]-amide} 8-{[(S)-1-(5-trifluoromethyl-pyrimidin-2-yl)-propyl]-amide}], for which the IC50 was determined as 350 nM. Consider `CC[C@@H](NC(=O)c1cc(C(=O)N2CCC[C@@H]2C)n2c1COCC2)c1ccc(F)c(C#N)c1` [16gq, 6-((S)-2-Methyl-pyrrolidine-1-carbonyl)-3,4-dihydro-1H-pyrrolo[2,1-c][1,4]oxazine-8-carboxylic acid [(R)-1-(3-cyano-4-fluoro-phenyl)-propyl]-amide], for which the IC50 worked out at 490 nM. Take `CC[C@@H](NC(=O)c1cc(C(=O)N2CCC[C@@H]2C)n2c1COCC2)c1ccncc1Cl` [16bw, 6-((S)-2-Methyl-pyrrolidine-1-carbonyl)-3,4-dihydro-1H-pyrrolo[2,1-c][1,4]oxazine-8-carboxylic acid [(R)-1-(3-chloro-pyridin-4-yl)-propyl]-amide]: the IC50 is 1200 nM. For the molecule `CC[C@@H](NC(=O)c1cc(C(=O)NC(C)c2cnccn2)n2c1COCC2)c1ccccc1` (single isomer, unassigned) [16ie], the IC50 is 260 nM. Take `CC[C@H](NC(=O)c1cc(C(=O)N[C@@H](c2ccc(F)cc2)C(C)C)c2n1CCOC2)c1ccccc1` [16jq, 3,4-Dihydro-1H-pyrrolo[2,1-c][1,4]oxazine-6,8-dicarboxylic acid 8-{[(R)-1-(4-fluoro-phenyl)-2-methyl-propyl]-amide} 6-[((S)-1-phenyl-propyl)-amide]]: the IC50 was 67 nM. On to `CC[C@@H](NC(=O)c1cc(C(=O)NCC(=O)OC(C)C)n2c1COCC2)c1ccccc1` [16iw, {[8-((R)-1-Phenyl-propylcarbamoyl)-3,4-dihydro-1H-pyrrolo[2,1-c][1,4]oxazine-6-carbonyl]-amino}-acetic acid isopropyl ester], for which the IC50 is 620 nM. Take `COC(=O)[C@H]1CCCN1C(=O)c1cc(C(=O)N[C@@H](c2ccc(F)cc2)C(C)C)n2c1COCC2` [16ln, (R)-1-{6-[(R)-1-(4-Fluoro-phenyl)-2-methyl-propylcarbamoyl]-3,4-dihydro-1H-pyrrolo[2,1-c][1,4]oxazine-8-carbonyl}-pyrrolidine-2-carboxylic acid methyl ester]: the IC50 was determined as 140 nM.

Values taken from patent US9284333B2, “Fused pyrroledicarboxamides and their use as pharmaceuticals” (SANOFI, priority 2012, dated 2016).
